Data on two compounds can be found in patent publication US9840500B2, “Compounds as dual inhibitors of histone methyltransferases and DNA methyltransferases” (FUNDACIÓN PARA LA INVESTIGACIÓN MÉDICA APLICADA, priority 2014, dated 2017).

pIC50: −log10 of the molar value. Some results are limits rather than exact numbers.

The test system of one experiment is MOLM-13. Nature of the experiment: Cell proliferation assay, MOLM-13 (AML). The class given is cell-based. Conditions: Homo sapiens, 48 hours. The procedure: (§1) Cell proliferation was analyzed after 48 hours of in vitro treatment using the CellTiter 96 Aqueous One Solution Cell Proliferation Assay (Promega, Madison, Wis.). This is a colorimetric method for determining the number of viable cells in proliferation.
(§2) For the assay, suspension cells were cultured by triplicate at a density of 1×10^6 cells/ml in 96-well plates (100.000 cells/well, 100 μl/well), except for OCILY-3 and OCILY-10 cell lines which were cultured at a density of 0.5×10^6 cells/ml (50.000 cells/well, 100 μl/well) and for HepG2, Hep3B and PLC/PRF/5 cell ines which were cultured at a density of 3000 cells/well, 100 μl/well). Adherent cells were obtained from 80-90% confluent flasks and 100 μl of cells were seeded at a density of 5000 cells/well in 96-well plates by triplicate. Before addition of the compounds, adherent cells were allowed to attach to the bottom of the wells for 12 hours. […]
(§3) After 48 hours of treatment, plates with suspension cells were centrifuged at 800 g for 10 minutes and medium was removed. […] After 1-3 hours of incubation at 37° C., absorbance was measured at 490 nm in a 96-well plate reader. The background absorbance was measured in wells with only cell line medium and solution reagent. Data was calculated as a percentage of total absorbance of treated cell/absorbance of non treated cells. […]

For a further experiment, the system named is PC3. Nature of the experiment: Cell proliferation assay, PC3 (Prostate). The experiment is classed as cell-based. Conditions: Homo sapiens, PC-3, 48 hours. The procedure: as §1, §2, §3
A further experiment relates to OCI-AML-2. Put plainly: Cell proliferation assay, OCI-AML-2 (AML). The class given is cell-based. The conditions noted are these: Homo sapiens. On the procedure:
as §1
(§4) For the assay, suspension cells were cultured by triplicate at a density of 1×10^6 cells/ml in 96-well plates (100.000 cells/well, 100 μl/well), except for OCILY-3 and OCILY-10 cell lines which were cultured at a density of 0.5×10^6 cells/ml (50.000 cells/well, 100 μl/well) and for HepG2, Hep3B and PLC/PRF/5 cell ines which were cultured at a density of 3000 cells/well, 100 μl/well). Adherent cells were obtained from 80-90% confluent flasks and 100 μl of cells were seeded at a density of 5000 cells/well in 96-well plates by triplicate. Before addition of the compounds, adherent cells were allowed to attach to the bottom of the wells for 12 hours. In all cases, only the 60 inner wells were used to avoid any border effects.
(§5) After 48 hours of treatment, plates with suspension cells were centrifuged at 800 g for 10 minutes and medium was removed. The plates with adherent cells were flicked to remove medium. Then, cells were incubated with 100 ul/well of medium and 20 ul/well of CellTiter 96 Aqueous One Solution reagent. After 1-3 hours of incubation at 37° C., absorbance was measured at 490 nm in a 96-well plate reader. The background absorbance was measured in wells with only cell line medium and solution reagent. Data was calculated as a percentage of total absorbance of treated cell/absorbance of non treated cells.
Compounds 3-04 and 3-07 were tested against different solid tumour and oncohematological cell lines using the cell proliferation protocol described above.

For another experiment, the system named is PLC/PRF/5. Nature of the experiment: Cell proliferation assay, PLC/PRF/5 (HCC). The conditions noted are these: Homo sapiens, 48 hours of treatment, Table 3. The class given is cell-based.
The test system of the next experiment is COLO-205. Nature of the experiment: Cell proliferation assay, COLO-205 (Colorectal). The class given is cell-based. Conditions: Homo sapiens, 48 hours. On the procedure: as §1, §2, §3
The subject of the next experiment is LOVO. Put plainly: Cell proliferation assay, LOVO (Colorectal). The class given is cell-based. Conditions: Homo sapiens, 48 hours. The procedure: as §1, §2, §3
For another experiment, the system named is 1205-LU. Put plainly: Cell proliferation assay, 1205-LU (Melanoma). The class given is cell-based. Conditions: Homo sapiens, 48 hours. On the procedure:
as §1, §2, §3

In another experiment the target is DNMT3B/3L (Homo sapiens, UniProt Q9UBC3). Put plainly: DNMT3B enzyme activity assay (chemiluminescence BPS DNMT Universal Assay Kit). The experiment is classed as biochemical. On the procedure:
DNMT3A and DNMT3B activity assays were carried out with the chemiluminiscence BPS DNMT Universal Assay Kit (BPS#52035) using a strip 96-well plate pre-coated with DNMT substrate.
The enzyme activity assay protocol is as follows: • Rehydrate the microwells by adding 150 μL of TBST buffer (1× Tris-buffered saline (TBS), pH 8.0, containing 0.05% Tween-20) to every well. Incubate 15 minutes at room temperature. • Dilute each purified DNMT [DNMT3A/3L (BPS#51106) or DNMT3B/3L (BPS#51109)] in 1×DNMT assay buffer 2 (BPS#52201) at 5-10 ng/μL. Keep diluted enzyme on ice until use. • Prepare 50 μL of reaction mixture consisting of 20 μL of DNMT (5-10 ng/μL), 12.5 μL of 4×DNMT assay buffer 2 (BPS#52201), 2.5 μL of S-adenosylmethionine 400 μM, test compound at concentrations ranging from 3 nM to 10 μM and H2O up to 50 μL. • Add the entire reaction mixture to the substrate coated wells. […]
Incubate for 30 min at room temperature with slow shaking. • Wash plate three times with TBST buffer and incubate in Blocking buffer shaking on a rotating platform for 10 min. […] Immediately read luminescence using a BioTek Synergy™2 microplate reader.
The chemiluminescence intensity data were analyzed and compared. […] Calculated IC50 values were determined using non-linear regression analysis of Sigmoidal dose-response curve generated with a four-parameters inhibition curve.

For the next experiment, the system named is U266. Nature of the experiment: Cell proliferation assay, U266 (MM). The class given is cell-based. The conditions noted are these: Homo sapiens, U-266, Table 5 comparison. The procedure:
as §1, §4, §5

The subject of another experiment is HepG2. Put plainly: Cell proliferation assay, HepG2 (HCC). The class given is cell-based. The conditions noted are these: Homo sapiens, 48 hours of treatment, Table 3.
A further experiment concerns 451-LU. Put plainly: Cell proliferation assay, 451-LU (Melanoma). Conditions: 48 hours. The class given is cell-based. On the procedure:
as §1, §2, §3

The test system of a further experiment is UACC-62. Put plainly: Cell proliferation assay, UACC-62 (Melanoma). Conditions: Homo sapiens, 48 hours. The class given is cell-based. The procedure:
as §1, §2, §3

For a further experiment, the system named is WM-35. Put plainly: Cell proliferation assay, WM-35 (Melanoma). The class given is cell-based. Conditions: WM35, 48 hours. The procedure:
as §1, §2, §3

The subject of the next experiment is JJN3. Nature of the experiment: Cell proliferation assay, JJN3 (MM). The experiment is classed as cell-based. The conditions noted are these: Homo sapiens, JJN-3, Table 5 comparison. The procedure: as §1, §4, §5
For the next experiment, the system named is U87-MG. Put plainly: Cell proliferation assay, U87-MG (Glioblastoma). The class given is cell-based. Conditions: Homo sapiens, U-87 MG, 48 hours. The procedure:
as §1, §2, §3

A further experiment deals with MGH-U3. Put plainly: Cell proliferation assay, MGH-U3 (Bladder). Conditions: 48 hours. The experiment is classed as cell-based. On the procedure:
as §1, §2, §3

For another experiment, the system named is A498. Nature of the experiment: Cell proliferation assay, A498 (Renal). The class given is cell-based. The conditions noted are these: Homo sapiens, 48 hours. On the procedure: as §1, §2, §3
The subject of another experiment is SU8686. Nature of the experiment: Cell proliferation assay, SU8686 (Pancreas). The class given is cell-based. The conditions noted are these: Homo sapiens, SU.86.86, 48 hours. The procedure:
as §1, §2, §3

A further experiment concerns MGH-U4. Nature of the experiment: Cell proliferation assay, MGH-U4 (Bladder). Conditions: 48 hours. The class given is cell-based. On the procedure:
as §1, §2, §3

For another experiment, the system named is HCT-116. Put plainly: Cell proliferation assay, HCT-116 (Colorectal). The experiment is classed as cell-based. The conditions noted are these: Homo sapiens, 48 hours. On the procedure: as §1, §2, §3
Another experiment concerns H460. Put plainly: Cell proliferation assay, H460 (non-small-cell lung cancer). The experiment is classed as cell-based. The conditions noted are these: Homo sapiens, NCI-H460, 48 hours. The procedure: as §1, §2, §3
The next experiment relates to DU145. Put plainly: Cell proliferation assay, DU145 (Prostate). The class given is cell-based. Conditions: Homo sapiens, DU-145, 48 hours. On the procedure: as §1, §2, §3

As usually defined, the GI50 is the concentration giving 50% growth inhibition. Low readings indicate more potent growth inhibition, high ones less potent growth inhibition. As a reminder, the pIC50 is −log10 of the IC50, conventionally taken in molar units. Turning to `COc1cc2c(NC3CCN(C)CC3)cc(-c3ccc(C)o3)nc2cc1OCCCN1CCCC1.O=C(O)C(F)(F)F` [Compound 3-04, 6-methoxy-2-(5-methyl-2-furyl)-N-(1-methyl-4-piperidyl)-7-(3-pyrrolidin-1-ylpropoxy)quinolin-4-amine; 2,2,2-trifluoroacetic acid], the concentration for 50% growth inhibition (GI50) fell in the range of 0.1 to 1 µM in the experiment with MOLM-13; 0.1 to 1 µM with PC3; 0.1 to 1 µM in the experiment on OCI-AML-2 (OCI-AML2, 48 hours, Table 4); 0.1 to 1 µM in the experiment on OCI-AML-2 (OCI-AML2, Table 5 comparison); 0.1 to 1 µM in the experiment with PLC/PRF/5; 0.1 to 1 µM in the experiment on COLO-205. The 50% growth inhibitory concentration (GI50) in the experiment on LOVO was in the range of 1 to 10 µM; with 1205-LU, 0.1 to 1 µM; in the experiment with U266 it was 1 to 10 µM; with HepG2, 0.1 to 1 µM; in the experiment with 451-LU, 0.1 to 1 µM; in the experiment on UACC-62, 0.1 to 1 µM. The GI50 in the experiment on WM-35 is 0.1 to 1 µM; in the experiment on JJN3, 1 to 10 µM; with U87-MG it was 0.1 to 1 µM; in the experiment with MGH-U3, 0.1 to 1 µM; with A498, greater than 10 µM; in the experiment on SU8686, 1 to 10 µM. Besides, the concentration for 50% growth inhibition (GI50) in the experiment with MGH-U4, in the experiment on HCT-116, with H460 and in the experiment on DU145 was 0.1 to 1 µM each time. The negative logarithm of the IC50 (pIC50) on DNMT3B/3L was 6.30 to 7.00.
Regarding `COc1cc2c(NCC3CCN(C)CC3)cc(-c3ccc(C)o3)nc2cc1OCCCN1CCCC1` [Compound 3-07], the 50% growth inhibitory concentration (GI50) in the experiment on MOLM-13 is 1 to 10 µM; in the experiment on PC3 it was 0.1 to 1 µM; in the experiment on OCI-AML-2 (OCI-AML2, 48 hours, Table 4), 0.1 to 1 µM; with OCI-AML-2 (OCI-AML2, Table 5 comparison), 0.1 to 1 µM; in the experiment with PLC/PRF/5, 0.1 to 1 µM; with COLO-205, 0.1 to 1 µM. Besides, the GI50 in the experiment on LOVO was 0.1 to 1 µM; in the experiment with 1205-LU it was no more than 0.1 µM; with U266, 1 to 10 µM; in the experiment on HepG2 it was 0.1 to 1 µM; in the experiment on 451-LU it was no more than 0.1 µM; in the experiment on UACC-62, 0.1 to 1 µM. In addition, the GI50 with WM-35 fell in the range of 0.1 to 1 µM; in the experiment with JJN3, 1 to 10 µM; in the experiment on U87-MG, 0.1 to 1 µM; with MGH-U3, 0.1 to 1 µM; in the experiment with A498, 0.1 to 1 µM; in the experiment with SU8686 it was 0.1 to 1 µM. Further, the GI50 in the experiment on MGH-U4, in the experiment with HCT-116, with H460 and in the experiment with DU145 was 0.1 to 1 µM throughout. The pIC50 at DNMT3B/3L is 6.00 to 6.30.
